The results in this text go back to patent publication US10166412B2, “Skin lightening composition comprising 4-hexylresorcinol and ilomastat” (Conopco, Inc., priority 2014, dated 2019).

The test system of assay [1] is primary human melanocytes. As to the kind of experiment: Melanin content assay in primary human melanocytes. The class given is cell-based. Conditions: for inhibition at 1 µM / inhibition at 10 µM: Homo sapiens, Melanocyte, 72 hrs treatment, corrected for cell numbers, read-out: Average % inhibition of cellular melanin; for reduction of melanin content (in words): primary human melanocytes. The protocol: (i) Cell Cultures: • Neonatal foreskin primary human melanocytes were procured from Life Technologies, USA. Cells were grown in Medium 254 supplemented with human melanocyte growth supplement-2 and maintained at 37° C. in a humidified incubator with 5% CO2 atmosphere. The maintenance and sub culturing of cells were carried out as per the manufacturer's instructions. Cells between passages 3-6 were used for experimentation.
(ii) Active Addition: • Cells were seeded at a density of 5×10^4/well in a 24 well plate in Melanocyte Growth Media (MGM) and incubated for 24 hrs at 37° C./5% CO2. Actives were added to cells along with relevant controls. 72 hrs post active treatment, cell viability was determined using the Calcein method followed by measurement of cellular melanin content (described in below sections).
(iii) Cell Viability Assay: • Briefly, spent media was removed and cells washed once with 0.2 ml of 1× PBS-Ca—Mg solution. Fresh 1 μM calcein-AM in PBS buffer was added to each well. Plates were incubated for 30 min. at 37° C. in a CO2 incubator. Calcein fluorescence was then measured (excitation at 490 nm and emission at 520 nm) in TECAN M1000 plate reader.
(iv) Melanin Content Assay: • After Calcein measurements, cultures were rinsed with PBS (1×) and lysed for 1 hour at 60° C. in a shaker incubator using NaOH/DMSO mix. Melanin content was measured in a Tecan plate reader (405 nm filter), corrected for cell numbers and represented as % inhibition.

In assay [2] the target is T1, Tyrosinase enzyme (Homo sapiens, UniProt P14679).
T1 construct: Primary human melanocytic lysate was used as a source of Tyrosinase enzyme; endogenous in cells; host or cells: primary human melanocytes (lysate)
T1 sequence (P14679 19-529): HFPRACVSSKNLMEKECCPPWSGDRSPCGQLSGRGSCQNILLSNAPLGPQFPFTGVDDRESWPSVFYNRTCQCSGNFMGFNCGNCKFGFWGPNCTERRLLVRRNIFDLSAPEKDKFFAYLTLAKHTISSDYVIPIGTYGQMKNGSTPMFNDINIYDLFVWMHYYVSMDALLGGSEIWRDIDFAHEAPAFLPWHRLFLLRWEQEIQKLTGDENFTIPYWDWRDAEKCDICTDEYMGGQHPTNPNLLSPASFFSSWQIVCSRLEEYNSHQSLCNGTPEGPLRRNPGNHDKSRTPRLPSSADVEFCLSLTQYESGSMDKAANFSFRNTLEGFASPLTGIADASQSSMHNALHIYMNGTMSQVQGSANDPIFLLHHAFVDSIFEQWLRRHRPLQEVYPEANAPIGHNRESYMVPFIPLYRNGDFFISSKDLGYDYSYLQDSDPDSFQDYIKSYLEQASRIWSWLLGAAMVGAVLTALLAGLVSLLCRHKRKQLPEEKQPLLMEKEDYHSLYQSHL
The experiment in a line: In vitro human tyrosinase activity assay (melanocytic lysate). The class given is biochemical. As for the experimental part: (v) In Vitro Human Tyrosinase Activity Assay: • Primary human melanocytic lysate was used as a source of Tyrosinase enzyme. Human melanocytic lysate and test actives (at different concentrations) were incubated together for 15 mins, prior to addition of Tyrosine/DOPA substrate mix. Assay plate was then incubated at 37° C. for ˜14-16 hrs. Optical Density was measured at 405 nm and % inhibition of Tyrosinase activity calculated. Results

As for `CCCCCCc1ccc(O)cc1O` [4-HR, 4-Hexylresorcinol], the inhibition at 1 µM stood at 11% in assay [1] and 28% in assay [2] (1 μM). Further, the inhibition at 10 µM in assay [1] was determined as 38%; in assay [2] (10 μM), 78%. In addition, the “reduction of melanin content (in words)” value in assay [1] (concentration not specified) was “significant reduction in melanin content”. In addition, the “direct modulation / inhibition of Tyrosinase enzyme activity (in words)” value in assay [2] is listed as “through direct modulation of Tyrosinase enzyme activity”. The compound also gave an inhibition at 5 µM in assay [2] (5 μM) of 55%. Besides, in assay [2] (50 μM), the inhibition at 50 µM came to 78%.

On to `CNC(=O)[C@H](Cc1c[nH]c2ccccc12)NC(=O)[C@@H](CC(=O)NO)CC(C)C` [Galardin, (R)-N4-Hydroxy-N1-[(S)-2-(1H-indol-3-yl)-1-methylcarbamoyl-ethyl]-2-isobutyl-succinamide], for which, in assay [1], the inhibition at 1 µM stood at 7% and the inhibition at 10 µM came out at 17%. Besides, the “reduction of melanin content (in words)” value in assay [1] (at 1 μM) was “no reduction”. Further, the “reduction of melanin content (in words)” value in assay [1] (at 10 μM) was “modest reduction”.

By inhibition is commonly meant how much of the control response was suppressed.
